Results taken from US20050014811A1, “Substituted benzimidazole compounds and their use for the treatment of cancer” (Aventis Pharma S.A., priority 2001, published 2005).

Key:
CDK4/CyclinD1 = CDK4/CyclinD1 (Homo sapiens, UniProt P11802); assay: CDK4/CyclinD1 Flashplate assay, 96-well format, biotinylated-Rb peptide substrate; type: biochemical
In short: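 Biotinylated Rb peptide bound to streptavidin Flashplate; CDK4/CyclinD1 (70 ng/well) preincubated 30 min on ice with compound at 10, 3, 1, 0.3 and 0.1 μM final. Reaction with 1 μM cold ATP plus 33P-ATP for 45 min at RT; incorporated 33P counted, duplicates.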

CDK2/CyclinE = CDK2/CyclinE (Homo sapiens, UniProt P24941); assay: CDK2/CyclinE Flashplate assay, 96-well format, biotinylated-Rb peptide substrate; type: biochemical
Procedure: This is a CDK2/CyclinE kinase assay in a 96-well Streptavidin-coated Flashplate with a biotinylated-Rb peptide substrate.
Each point is tested in duplicate
Biotinylated-Rb: Biotin-[…]-OH
• 1. Prepare substrate: 1 mg/ml solution made fresh in PBS. • 2. Add 4 μg per well to the Flashplate. • 3. Incubate for 2 hours at RT. • 4. From 10 mM inhibitor stocks in DMSO, make 1 mM, 300 μM, 100 μM, 30 μM and 10 μM series of dilution in DMSO. • 5. Was the Flashplate 3 times with 300 μl PBS to remove unbound peptide substrate. • 6. Add the CDK2/CyclinE kinase: 200 ng per well, in a volume of 90 μl in kinase buffer (except for “no enzyme” control wells). • 7. Add 1 μl per well of inhibitor to test 10 μM, 3 μM, 1 μM, 0.3 μM and 0.1 μM in final concentration per 100 μl in each well. • 8. Shake gently the Flashplate 1 minute. • 9. Incubate 30 minutes on wet ice. • 10. Initiate the reaction with 10 μl kinase buffer containing 1 μM final cold ATP and 1 μCi final ^33P-ATP per well. • 11. Shake gently the Flashplate 1 minute. • 12. Incubate 45 minutes at RT (no shaking). • 13. Wash the Flashplate 3 times with 300 μl PBS
14. Count to detect the incorporation of ^33P-ATP by the kinase to the Rb phosphorylation site.

Chain of CDK4/CyclinD1 (P11802 whole entry, species assumed): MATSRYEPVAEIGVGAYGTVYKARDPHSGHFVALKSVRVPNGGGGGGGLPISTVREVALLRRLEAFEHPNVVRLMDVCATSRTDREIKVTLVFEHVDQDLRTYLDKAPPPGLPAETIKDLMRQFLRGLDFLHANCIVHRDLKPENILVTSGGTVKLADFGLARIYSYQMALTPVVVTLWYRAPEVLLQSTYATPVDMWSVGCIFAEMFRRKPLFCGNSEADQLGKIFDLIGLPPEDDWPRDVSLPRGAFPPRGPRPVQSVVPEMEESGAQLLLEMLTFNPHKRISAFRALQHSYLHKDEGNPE
Chain of CDK4/CyclinD1 (P24385 whole entry partner, species assumed): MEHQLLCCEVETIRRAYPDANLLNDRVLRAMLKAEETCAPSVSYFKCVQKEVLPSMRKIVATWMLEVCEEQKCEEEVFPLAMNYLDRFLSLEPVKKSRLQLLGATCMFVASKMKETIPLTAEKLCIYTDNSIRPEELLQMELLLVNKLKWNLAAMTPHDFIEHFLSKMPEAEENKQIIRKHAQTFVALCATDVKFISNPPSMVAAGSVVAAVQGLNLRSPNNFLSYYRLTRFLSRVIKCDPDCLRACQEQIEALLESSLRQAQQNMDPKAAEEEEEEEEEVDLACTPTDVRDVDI

| Compound | IC50 (CDK4/CyclinD1) | IC50 (CDK2/CyclinE) |
| --- | --- | --- |
| COC(=O)Nc1nc2cc(OS(=O)(=O)c3ccc(NCc4ccccn4)cc3)ccc2[nH]1 [Example 5, Methyl-5-(4-[2-pyridylmethyl]aminophenylsulfonyloxy) benzimidazole-2-carbamate] | 1.12 µM | 2.2 µM |
| CCNc1ccc(S(=O)(=O)Oc2ccc3[nH]c(NC(=O)OC)nc3c2)cc1 [Example 6, Methyl-5-(4-ethylaminophenylsulfonyloxy) benzimidazole-2-carbamate] | 0.84 µM | 0.3 µM |
| COC(=O)Nc1nc2cc(OS(=O)(=O)c3ccc(NCC(=O)O)cc3)ccc2[nH]1 [Example 7, Methyl-5-(4-[N-Glycinyl]-phenylsulfonyloxy) benzimidazole-2-carbamate] | 0.47 µM | 2 µM |
| COC(=O)Nc1nc2cc(OS(=O)(=O)c3ccc(NC(C)C)cc3)ccc2[nH]1 [Example 10, Methyl-5-(4-isopropylaminophenylsulfonyloxy) benzimidazole-2-carbamate] | 0.7 µM | 0.8 µM |
| CCC(CO)Nc1ccc(S(=O)(=O)Oc2ccc3[nH]c(NC(=O)OC)nc3c2)cc1 (stereo not drawn) [Example 11, Methyl-5-(4-[1-ethyl, 2-hydroxyethyl]aminophenylsulfonyloxy)benzimidazole-2-carbamate] | 0.93 µM | 0.5 µM |
| COCCCNc1ccc(S(=O)(=O)Oc2ccc3[nH]c(NC(=O)OC)nc3c2)cc1 [Example 13, Methyl-5-(4-[3-methoxypropyl]aminophenyl-sulfonyloxy) benzimidazole-2-carbamate] | 0.4 µM | 2 µM |
| CNc1ccc(S(=O)(=O)Oc2ccc3[nH]c(NC(=O)OC)nc3c2)cc1 [Example 14, Methyl-5-(4-methylaminophenylsulfonyloxy) benzimidazole-2-carbamate] | 0.3 µM | 0.2 µM |
| COC(=O)Nc1nc2cc(OS(=O)(=O)c3ccc(NCCS(=O)(=O)O)cc3)ccc2[nH]1 [Example 15, Methyl-5-(4-[2-sulfonylethyl]aminophenylsulfonyloxy) benzimidazole-2-carbamate] | 0.3 µM | 1.8 µM |
| COC(=O)Nc1nc2cc(OS(=O)(=O)c3ccc(N)cc3)ccc2[nH]1 [Example 16, Methyl-5-(4-aminophenylsulfonyloxy)benzimidazole-2-carbamate] | 0.37 µM | 1.8 µM |
| CCN(CC)CCNc1ccc(S(=O)(=O)Oc2ccc3[nH]c(NC(=O)OC)nc3c2)cc1 [Example 17, Methyl-5-(4-[2-diethylaminoethyl]aminophenyl-sulfonyloxy) benzimidazole-2-carbamate] | 6.3 µM | 2 µM |
| COC(=O)Nc1nc2cc(OS(=O)(=O)c3ccc(NCC4CCCO4)cc3)ccc2[nH]1 (stereo not drawn) [Example 18, Methyl-5-(4-[1-tetrathydrofurylmethyl]aminophenyl-sulfonyloxy) benzimidazole-2-carbamate] | 1.3 µM | 0.6 µM |
| COC(=O)Nc1nc2cc(OS(=O)(=O)c3ccc(NC4CCCC4)cc3)ccc2[nH]1 [Example 19, Methyl-5-(4-cyclopentylaminophenylsulfonyloxy) benzimidazole-2-carbamate] | 2.92 µM | 0.7 µM |
| COC(=O)Nc1nc2cc(OS(=O)(=O)c3ccc(NCCc4ccccc4)cc3)ccc2[nH]1 [Example 20, Methyl-5-(4-[2-phenylethyl]aminophenylsulfonyloxy) benzimidazole-2-carbamate] | > 3 µM | > 10 µM |
| COC(=O)CCC(=O)Nc1nc2cc(OS(=O)(=O)c3ccc(-n4ccnc4)cc3)ccc2[nH]1 [Example 23, N-[5-(4-Imidazol-1-yl-benzenesulfonyloxy)-1H-benzoimidazol-2-yl]-succinamic acid methyl ester] | 3.1 µM | 0.4 µM |
| CC(C)(C)OC(=O)NCC(=O)Nc1nc2cc(OS(=O)(=O)c3ccc(NC4CCCC4)cc3)ccc2[nH]1 [Example 24, 4-Cyclopentylamino-benzenesulfonic acid 2-(2-tert-butoxycarbonylamino-acetylamino)-1H-benzoimidazol-5-yl ester] | 0.6 µM | 0.4 µM |
| COC(=O)CCC(=O)Nc1nc2cc(OS(=O)(=O)c3ccc(NC4CCCC4)cc3)ccc2[nH]1 [Example 25, N-[5-(4-Cyclopentylamino-benzenesulfonyloxy)-1H-benzoimidazol-2-yl]-succinamic acid methyl ester] | 0.13 µM | 0.08 µM |

| Compound | IC50 (CDK4/CyclinD1) | IC50 (CDK2/CyclinE) |
| --- | --- | --- |
| COC(=O)CCCC(=O)Nc1nc2cc(OS(=O)(=O)c3ccc(NC4CCCC4)cc3)ccc2[nH]1 [Example 26, 4-[5-(4-Cyclopentylamino-benzenesulfonyloxy)-1H-benzoimidazol-2-ylcarbamoyl]-butyric acid methyl ester] | 0.68 µM | 0.13 µM |
| O=C(Nc1nc2cc(OS(=O)(=O)c3ccc(NC4CCCC4)cc3)ccc2[nH]1)C1CC1 [Example 27, 4-Cyclopentylamino-benzenesulfonic acid 2-(cyclopropanecarbonyl-amino)-1H-benzoimidazol-5-yl ester] | 0.6 µM | 0.042 µM |
| COCC(=O)Nc1nc2cc(OS(=O)(=O)c3ccc(NC4CCCC4)cc3)ccc2[nH]1 [Example 28, 4-Cyclopentylamino-benzenesulfonic acid 2-(2-methoxy-acetylamino)-1H-benzoimidazol-5-yl ester] | 1.03 µM | 0.6 µM |
| CN(C)CC(=O)Nc1nc2cc(OS(=O)(=O)c3ccc(NC4CCCC4)cc3)ccc2[nH]1 [Example 29, 4-Cyclopentylamino-benzenesulfonic acid 2-(2-dimethylamino-acetylamino)-1H-benzoimidazol-5-yl ester] | 1.7 µM | 0.6 µM |
| CN(C)CCNC(=O)Nc1nc2cc(OS(=O)(=O)c3ccc(NC4CCCC4)cc3)ccc2[nH]1 [Example 44, 4-Cyclopentylamino-benzenesulfonic acid 2-[3-(2-dimethylamino-ethyl)-ureido]-1H-benzoimidazol-5-yl ester] | – | 0.13 µM |
| O=C(NCc1cccnc1)Nc1nc2cc(OS(=O)(=O)c3ccc(-n4ccnc4)cc3)ccc2[nH]1 [Example 57-j, 4-Imidazol-1-yl-benzenesulfonic acid 2-(3-pyridin-3-ylmethyl-ureido)-1H-benzoimidazol-5-yl ester] | – | 0.1 µM |
| O=C(NCc1ccccc1F)Nc1nc2cc(OS(=O)(=O)c3ccc(NC4CCCC4)cc3)ccc2[nH]1 [Example 58-h, 4-Cyclopentylamino-benzenesulfonic acid 2-[3-(2-fluoro-benzyl)-ureido]-1H-benzoimidazol-5-yl ester] | – | 0.1 µM |
| COC(=O)Nc1nc2cc(OS(=O)(=O)c3ccc(-c4ccon4)s3)ccc2[nH]1 [Example 62-c, 5-Isoxazol-3-yl-thiophene-2-sulfonic acid 2-methoxycarbonylamino-1H-benzoimidazol-5-yl ester] | – | 0.8 µM |
| COC(=O)Nc1nc2cc(OS(=O)(=O)c3cccc(OC(F)(F)F)c3)ccc2[nH]1 [Example 62-f, 3-Trifluoromethoxy-benzenesulfonic acid 2-methoxycarbonylamino-1H-benzoimidazol-5-yl ester] | – | 1.5 µM |
| COC(=O)Nc1nc2cc(OS(=O)(=O)c3ccccc3OC(F)(F)F)ccc2[nH]1 [Example 62-g, 2-Trifluoromethoxy-benzenesulfonic acid 2-methoxycarbonylamino-1H-benzoimidazol-5-yl ester] | – | 1 µM |
| COC(=O)Nc1nc2cc(OS(=O)(=O)c3ccsc3C(=O)OC)ccc2[nH]1 [Example 62-j, 3-(2-Methoxycarbonylamino-1H-benzoimidazol-5-yloxysulfonyl)-thiophene-2-carboxylic acid methyl ester] | – | 1.5 µM |
| COC(=O)Nc1nc2cc(OS(=O)(=O)c3ccc(OCC(=O)N4CCCC4)cc3)ccc2[nH]1 [Example 65, 4-(2-oxo-2-pyrrolidin-1-yl-ethoxy)-benzenesulfonic acid 2-methoxycarbonylamino-1H-benzoimidazol-5-yl-ester] | – | 1 µM |
| COC(=O)Nc1nc2cc(OS(=O)(=O)c3ccc(OCC(=O)NCc4ccco4)cc3)ccc2[nH]1 [Example 66-c, 4-{[(furan-2-ylmethyl)-carbamoyl]-methoxy}-benzenesulfonic acid 2-methoxycarbonylamino-1H-benzoimidazol-5-yl ester] | – | 1 µM |
| COc1cc(Nc2nc3cc(OS(=O)(=O)c4ccc(NC5CCCC5)cc4)ccc3[nH]2)cc(C(F)(F)F)c1 [Example 70-f, 4-Cyclopentylamino-benzenesulfonic acid 2-(3-methoxy-5-trifluoromethyl-phenylamino)-1H-benzoimidazol-5-yl ester] | – | 5 µM |
| CCOC(=O)c1cccc(Nc2nc3cc(OS(=O)(=O)c4ccc(NC5CCCC5)cc4)ccc3[nH]2)c1 [Example 70-g, 3-[5-(4-Cyclopentylamino-benzenesulfonyloxy)-1H-benzoimidazol-2-ylamino]-benzoic acid ethyl ester] | – | 1.5 µM |
